# Source: patent US5523314A, “Compounds useful as hypoglycemic agents and for treating Alzheimer's disease” (priority 1994, dated 1996)
# Read-outs that look alike come from different tables or passages of the source.
# System: blood glucose level
# Assay: Hypoglycemic activity in obese diabetic mice (Table 1)
# Type: in vivo, male viable yellow obese-diabetic mice
# Settings: for response vs control in vivo at 50 mg/kg: Mus musculus, ip
# Experimental: The hypoglycemic activity of the compounds of the present invention was determined by testing the efficacy of the compounds in vivo in male viable yellow obese-diabetic mice. The test procedure is described in detail below.
# Test formulations were prepared by dissolving the test compound in a saline solution containing 2% Emulphor (a polyoxyethylated vegetable oil surfactant from GAP Corp.) to provide the dose level desired. Each test formulation was administered to six viable yellow obese-diabetic mice intraperitoneally at the beginning of the experiment. Blood glucose levels were determined immediately before the first dose and at 2 and 4 hours thereafter using glucose oxidase. A mean was taken of the 6 values obtained before the first dose and at the 2 and 4 hour intervals. In Table 1, Column 1 provides the example number of the test compound, Column 2 provides the dose level of compound tested, and Columns 3 and 4 provide a measurement of the test animal's blood glucose level 2 and 4 hours after test compound administration, respectively, as a percentage of the test animal' s pre-administration blood glucose level.
# [1] = 2 h, 50 mg/kg, intraperitoneal, 2 hrs, read-out: Percent of Initial Blood Glucose Level After 2 hrs.
# [2] = 4 h, 50 mg/kg, intraperitoneal, 4 hrs, read-out: Percent of Initial Blood Glucose Level After 4 hrs.
SMILES,"ability to lower blood glucose levels in mammals (compared to structurally similar compounds known in the art, in words)",response vs control in vivo at 50 mg/kg [1],response vs control in vivo at 50 mg/kg [2],"Percent of Initial Blood Glucose Level After 2 hrs. (50 mg/kg, intraperitoneal, 2 hrs)","Percent of Initial Blood Glucose Level After 4 hrs. (50 mg/kg, intraperitoneal, 4 hrs)"
CCCCOc1ccc(C=C2SC(=S)NC2=O)cc1 [5-[(4-butoxyphenyl)methylene]-2-thioxo-4-thiazolidinone],surprising ability to lower blood glucose levels in mammals,,,,
"O=C1NC(=S)SC1=Cc1ccc2c(c1)OCO2 [Example 2, 5-[(1,3-benzodioxol-5-yl)methylene]-2-thioxo-4-thiazolidinone]",,96 ± 1%,82 ± 3%,,
"O=C1NC(=S)SC1=Cc1ccnc2ccccc12 [Example 3, 5-[(4-quinolinyl)methylene]-2-thioxo-4-thiazolidinone]",,90 ± 10%,73 ± 3%,,
"O=C1NC(=S)SC1=Cc1ccccc1O [Example 7, 5-[(2-hydroxyphenyl)methylene]-2-thioxo-4-thiazolidinone]",,80 ± 4%,91 ± 7%,,
"O=C1NC(=S)SC1=Cc1ccccc1[N+](=O)[O-] [Example 9, 5-[(2-nitrophenyl)methylene]-2-thioxo-4-thiazolidinone]",,91 ± 8%,83 ± 6%,,
"O=C1NC(=S)SC1=Cc1cccc([N+](=O)[O-])c1 [Example 10, 5-[(3-nitrophenyl)methylene]-2-thioxo-4-thiazolidinone]",,89 ± 4%,80 ± 4%,,
"O=C1NC(=S)SC1=Cc1cccc(O)c1 [Example 11, 5-[(3-hydroxyphenyl)methylene]-2-thioxo-4-thiazolidinone]",,84 ± 3%,85 ± 6%,,
"COc1ccc(C=C2SC(=S)NC2=O)c(OC)c1 [Example 12, 5-[(2,4-dimethoxyphenyl)methylene]-2-thioxo-4-thiazolidinone]",,90 ± 7%,69 ± 6%,,
"O=C1NC(=S)SC1=Cc1ccc(F)cc1 [Example 13, 5-[(4-fluorophenyl)methylene]-2-thioxo-4-thiazolidinone]",,94 ± 4%,88 ± 5%,,
"O=C1NC(=S)SC1=Cc1cccs1 [Example 14, 5-[(2-thienyl)methylene]-2-thioxo-4-thiazolidinone]",,84 ± 7%,71 ± 8%,,
"COc1cc(C(C)=C2SC(=S)NC2=O)cc(OC)c1OC [Example 19, 5-[(3,4,5-trimethoxyphenyl)methylmethylene]-2-thioxo-4-thiazolidinone]",,,,85 ± 14%,75 ± 4%
"COc1cc(C=C2SC(=S)NC2=O)ccc1O [Example 20, 5-[(3-methoxy-4-hydroxyphenyl)methylene]-2-thioxo-4-thiazolidinone]",,76 ± 3%,70 ± 5%,,
"O=C1NC(=S)SC1=Cc1cccc(Cl)c1 [Example 23, 5-[(3-chlorophenyl)methylene]-2-thioxo-4-thiazolidinone]",,74 ± 6%,90 ± 6%,,
"COc1ccc(C=C2SC(=S)NC2=O)cc1C [Example 27, 5-[(3-methyl-4-methoxyphenyl)methylene]-2-thioxo-4-thiazolidinone]",,93 ± 3%,84 ± 6%,,
"O=C1NC(=S)SC1=Cc1ccccc1-c1ccccc1 [Example 29, 5-[[(1,1'-biphenyl)-2-yl]methylene]-2-thioxo-4-thiazolidinone]",,84 ± 5%,77 ± 6%,,
"C=CCN1C(=O)C(=Cc2ccc(O)c(OC)c2)SC1=S [Example 30, 5-[(3-methoxy-4-hydroxyphenyl)methylene]-3-(2-propenyl)-2-thioxo-4-thiazolidinone]",,78 ± 7%,81 ± 5%,,
"Cc1cccc(C=C2SC(=S)NC2=O)c1 [Example 33, 5-[(3-methylphenyl)methylene]-2-thioxo-4-thiazolidinone]",,91 ± 6%,86 ± 7%,,
